Literature values in publication PMC10713630, “Elucidation of the structural basis for ligand binding and translocation in conserved insect odorant receptor co-receptors” (Nature Communications, 2023).
pEC50: −log10 of the molar value.

Tests used:
[1] = tested on: MhraOR5; design: method as in PMID 34349260; details: cited from earlier work
[2] = tested on: MhraOR5 M209V; design: method as in Del Marmol et al. 3; details: ref Del Marmol et al. 3; cited from earlier work
[3] = tested on: MhraOR1 G169A; design: method as in Del Marmol et al. 3; details: ref Del Marmol et al. 3; cited from earlier work
[4] = tested on: AgamOrco/AgamOR65; details: cited from earlier work

| Structure (SMILES) | Agonist of MhraOR5 [1] | Effect on DEET-induced channel response [2] | Effect on Eugenol-induced channel response [3] | pEC50 ([4]; AgamOrco/AgamOR65, ref Tailor et al. 1) | Potency relative to VUAA1 ([4]; ranked by EC50) |
| --- | --- | --- | --- | --- | --- |
| CCN(CC)C(=O)c1cccc(C)c1 [DEET] | agonists | I | – | – | – |
| C=CCc1ccc(O)c(OC)c1 [Eugenol, eugenol] | agonists | – | I | – | – |
| CC(C)c1ccc(NC(=O)CSc2nnc(-c3ccncc3)n2C2CC2)cc1 [VUAA4] | – | – | – | 5.68 | greater potency |
